Columns and labels:
[1] = tested on: outbred Swiss mice, murine CL/P model; experiment: Survival in cecal ligation and puncture (CL/P) model; format: in vivo, mouse; conditions: 10 mcg/kg IP, 1 hour prior and 6 hours after surgery, vs CL/P control, p=0.06
Method: FIG. 11 is a graph tracking survival of outbred Swiss mice in various treatment arms of a murine CL/P model. CRISPP treated mice (10 mcg/kg) received 2 doses intraperitoneally; one given 1 hour prior to surgery or sham surgery and one dose given 6 hours after surgery. The same dose, delivery route, and schedule were followed for the scrambled peptide control mice. Ten mice were assessed in each of the CL/P groups.
Survival of outbred Swiss mice was tracked in various treatment arms following intraperitoneal injection of either LPS (20 mg/kg) or E. coli (4×10^7 bacteria), as shown in FIGS. 10A and 10B. […] Six mice were assessed in both groups: LPS+CRISPP and LPS+scrambled control peptide. […] Ten mice were assessed in each group: no treatment, E. coli+CRISPP, and E. coli+scrambled control peptide. […] Referring to FIG. 11, CRISPP was also evaluated in a murine model of polymicrobial infection caused by cecal ligation and puncture (CL/P). […] Ten mice were assessed in each of the CL/P groups. […]
Animals were treated with CRISPP (10 mg/kg), nNIF (10 mg/kg), or SCR (10 mg/kg) by i.p. injection 1 hour prior to and 6 hours after infection (E. coli, 4.5×10^7 cfu/mouse, i.p. injection) or stimulation (LPS, 25 mg/kg, i.p. injection). […] Survival was assessed over 6 days at 6 hour to 12 hour intervals.

[2] = tested on: outbred Swiss mice, intraperitoneal injection of E. coli; experiment: Survival after intraperitoneal E. coli; format: in vivo, mouse
Method: FIG. 10B is a graph tracking survival of outbred Swiss mice in various treatment arms following intraperitoneal injection of E. coli (4×10^7 bacteria). As in FIG. […] The same dose, delivery route, and schedule were followed for the scrambled peptide control mice. Here, 10 mice were assessed in each group: no treatment, E. coli plus CRISPP, and E. coli plus scrambled peptide.
Survival of outbred Swiss mice was tracked in various treatment arms following intraperitoneal injection of either LPS (20 mg/kg) or E. coli (4×10^7 bacteria), as shown in FIGS. 10A and 10B. […] The same dose, delivery route, and schedule were followed for the scrambled control peptide control mice. Six mice were assessed in both groups: LPS+CRISPP and LPS+scrambled control peptide. […] Ten mice were assessed in each group: no treatment, E. coli+CRISPP, and E. coli+scrambled control peptide. No antibiotics were given. No deaths occurred in the no treatment group. […] Referring to FIG. 11, CRISPP was also evaluated in a murine model of polymicrobial infection caused by cecal ligation and puncture (CL/P). CL/P was also performed without concomitant antibiotic treatment. Ten mice were assessed in each of the CL/P groups. […]
[…] Survival was assessed over 6 days at 6 hour to 12 hour intervals.

With “Cancer-Associated SCM-Recognition, Immune Defense Suppression, and Serine Protease Protection Peptide [CRISPP, nNIF-related peptide (nNRP)]” the Survival [1] was “approached statistical significance”, the “Survival, post-infection treatment” value ([2]; CRISPP-Post/E. coli vs SCR-Post/E. coli, peptide 4 hours after infection) was “approached statistical significance” and the Survival ([2]; E. coli 4×10^7 IP, 10 mcg/kg/dose IP, 1 hour prior and 6 hours after, vs E. coli+scrambled peptide, p<0.0001) was “statistically greater”.

— patent US10232023B2, “Methods for treatment of and prophylaxis against inflammatory disorders” (THE UNIVERSITY OF UTAH RESEARCH FOUNDATION, priority 2013, dated 2019)
